Laboratory results: US12643905B2, “Spiropyrrolidine derived antiviral agents” (priority 2021, dated 2026)

Molecular target: SARS-CoV-2 3CL-protease (Severe acute respiratory syndrome coronavirus 2, UniProt P0DTD1)
Assay: SARS-CoV-2 3C-like (3CL) protease fluorescence assay (FRET)
Format: biochemical
Conditions: recombinant SARS-CoV-2 3CL-protease 10 nM, 30 min preincubation, run in duplicate; read-out: FRET IC50

SMILES	IC50 [µM]
[2H]C([2H])([2H])N(C(=O)C(=O)NCC(C)C)[C@@H](CCCC)C(=O)N1C[C@]2(C[C@H]1C#N)C(=O)Nc1ccccc12 [Example 56]	< 0.1
CC(C)(C)C[C@@H](C(=O)N1C[C@]2(C[C@H]1C#N)C(=O)Nc1ccccc12)N(CC(F)F)C(=O)C(=O)Nc1ccccc1 [Example 60]	0.1 to 1
CC(C)(C)C[C@H](NC(=O)C(=O)N[C@]12CC[C@H](C1)C2)C(=O)N1C[C@]2(C[C@H]1C#N)C(=O)Nc1ccccc12 [Example 136]	< 0.1
CC(C)(C)C[C@H](NC(=O)C(=O)NC(C)(C)C(F)(F)F)C(=O)N1C[C@]2(C[C@H]1C#N)C(=O)Nc1ccccc12 [Example 135]	< 0.1
CC(C)(C)C[C@H](NC(=O)C(=O)Nc1ccc2[nH]ccc2c1)C(=O)N1C[C@]2(C[C@H]1C#N)C(=O)Nc1ccccc12 [Example 123]	< 0.1
CC(C)(C)C[C@@H](C(=O)N1C[C@]2(C[C@H]1C#N)C(=O)Nc1ccccc12)N(CC(F)(F)F)C(=O)C(=O)Nc1ccccc1 [Example 65]	0.1 to 1
CC(C)(C)C[C@H](NC(=O)C(=O)Nc1ccc(C(F)(F)F)cn1)C(=O)N1C[C@]2(C[C@H]1C#N)C(=O)Nc1ccccc12 [Example 154]	< 0.1
CN(C(=O)C(=O)Nc1c(Cl)cccc1Cl)[C@@H](CC(C)(C)C)C(=O)N1C[C@]2(C[C@H]1C#N)C(=O)Nc1ccccc12 [Example 151]	< 0.1
CC(C)(C)C[C@H](NC(=O)C(=O)Nc1cccc(C(F)(F)F)n1)C(=O)N1C[C@]2(C[C@H]1C#N)C(=O)Nc1ccccc12 [Example 155]	< 0.1
CC(C)(C)C[C@@H](C(=O)N1C[C@]2(C[C@H]1C#N)C(=O)Nc1ccccc12)N(CC(F)(F)F)C(=O)C(=O)Nc1ccc(F)cc1 [Example 64]	0.1 to 1
CC(C)(C)C[C@H](NC(=O)C(=O)Nc1cncc(C(F)(F)F)c1)C(=O)N1C[C@]2(C[C@H]1C#N)C(=O)Nc1ccccc12 [Example 157]	< 0.1
Cc1ccnc(C)c1NC(=O)C(=O)N[C@@H](CC(C)(C)C)C(=O)N1C[C@]2(C[C@H]1C#N)C(=O)Nc1ccccc12 [Example 152]	< 0.1
CC(C)(C)C[C@H](NC(=O)C(=O)Nc1ccnc(C(F)(F)F)c1)C(=O)N1C[C@]2(C[C@H]1C#N)C(=O)Nc1ccccc12 [Example 128]	< 0.1
CC(C)(C)C[C@H](NC(=O)C(=O)Nc1cccnc1C(F)(F)F)C(=O)N1C[C@]2(C[C@H]1C#N)C(=O)Nc1ccccc12 [Example 162]	< 0.1
CC(C)(C)C[C@H](NC(=O)C(=O)Nc1c(Cl)cccc1C(F)(F)F)C(=O)N1C[C@]2(C[C@H]1C#N)C(=O)Nc1ccccc12 [Example 197]	< 0.1
CC(C)(C)C[C@H](NC(=O)C(=O)Nc1c(F)cccc1C(F)(F)F)C(=O)N1C[C@]2(C[C@H]1C#N)C(=O)Nc1ccccc12 [Example 196]	< 0.1
CC(C)(C)C[C@H](NC(=O)C(=O)C1CC1)C(=O)N1C[C@]2(C[C@H]1C#N)C(=O)Nc1ccccc12 [Example 178]	0.1 to 1
N#C[C@@H]1C[C@@]2(CN1C(=O)[C@H](CC1CC1)NC(=O)C(=O)Nc1ccncc1C(F)(F)F)C(=O)Nc1ccccc12 [Example 171]	< 0.1
CC(C)(C)C[C@H](NC(=O)C(=O)N[C@@H]1CC2CC[C@H](C2)C1)C(=O)N1C[C@]2(C[C@H]1C#N)C(=O)Nc1ccccc12 [Example 165]	< 0.1
[2H]C([2H])([2H])N(C(=O)C(=O)c1ccc(F)cc1)[C@@H](CCCC)C(=O)N1C[C@]2(C[C@H]1C#N)C(=O)Nc1ccccc12 [Example 57]	< 0.1

SMILES	IC50 [µM]
CC(C)(C)C[C@H](NC(=O)C(=O)Nc1ccc(C(F)(F)F)cc1C(F)(F)F)C(=O)N1C[C@]2(C[C@H]1C#N)C(=O)Nc1ccccc12 [Example 166]	< 0.1
N#C[C@@H]1C[C@@]2(CN1C(=O)[C@H](CC1CC1)NC(=O)C(=O)Nc1c(Cl)cc(F)cc1C(F)(F)F)C(=O)Nc1ccccc12 [Example 209]	< 0.1
N#C[C@@H]1C[C@@]2(CN1C(=O)[C@H](CC1CC1)NC(=O)C(=O)Nc1cncc(C(F)(F)F)c1)C(=O)Nc1ccccc12 [Example 173]	< 0.1
CC(C)(C)C[C@H](NC(=O)C(=O)Nc1ncccc1C(F)(F)F)C(=O)N1C[C@]2(C[C@H]1C#N)C(=O)Nc1ccccc12 [Example 125]	< 0.1
COc1cccc(C)c1NC(=O)C(=O)N[C@@H](CC(C)(C)C)C(=O)N1C[C@]2(C[C@H]1C#N)C(=O)Nc1ccccc12 [Example 144]	< 0.1
N#C[C@@H]1C[C@@]2(CN1C(=O)[C@H](CC1CC1)NC(=O)C(=O)Nc1c(F)cccc1C(F)(F)F)C(=O)Nc1ccccc12 [Example 200]	< 0.1
CC(C)(C)C[C@H](NC(=O)C(=O)Nc1c(F)ccc(F)c1F)C(=O)N1C[C@]2(C[C@H]1C#N)C(=O)Nc1ccccc12 [Example 150]	< 0.1
CC(C)(C)C[C@H](NC(=O)C(=O)N1CCC(C(F)(F)F)CC1)C(=O)N1C[C@]2(C[C@H]1C#N)C(=O)Nc1ccccc12 [Example 112]	0.1 to 1
N#C[C@@H]1C[C@@]2(CN1C(=O)[C@H](CC1CC1)NC(=O)C(=O)Nc1ncccc1C(F)(F)F)C(=O)Nc1ccccc12 [Example 167]	< 0.1
CC(C)(C)C[C@H](NC(=O)C(=O)Nc1ccc(C(F)(F)F)cc1C(F)(F)F)C(=O)N1C[C@]2(C[C@H]1C#N)C(=O)Nc1ccccc12 [Example 137]	0.1 to 1
Cc1cccc(C)c1NC(=O)C(=O)N[C@@H](Cc1ccccc1)C(=O)N1C[C@]2(C[C@H]1C#N)C(=O)Nc1ccccc12 [Example 203]	< 0.1
CC(C)(C)C[C@H](NC(=O)C(=O)Nc1c(Cl)cc(F)cc1Cl)C(=O)N1C[C@]2(C[C@H]1C#N)C(=O)Nc1ccccc12 [Example 204]	< 0.1
CC(C)(C)C[C@H](NC(=O)C(=O)Nc1ccncc1C(F)(F)F)C(=O)N1C[C@]2(C[C@H]1C#N)C(=O)Nc1ccccc12 [Example 177]	< 0.1
CC(C)(C)C[C@H](NC(=O)C(=O)N[C@]12C[C@](F)(C1)C2)C(=O)N1C[C@]2(C[C@H]1C#N)C(=O)Nc1ccccc12 [Example 142]	< 0.1
Cc1cccnc1NC(=O)C(=O)N[C@@H](CC(C)(C)C)C(=O)N1C[C@]2(C[C@H]1C#N)C(=O)Nc1ccccc12 [Example 126]	< 0.1
CC(C)(C)C[C@H](NC(=O)C(=O)Nc1ccc2cccnc2c1)C(=O)N1C[C@]2(C[C@H]1C#N)C(=O)Nc1ccccc12 [Example 113]	< 0.1
CC(C)(C)C[C@H](NC(=O)C(=O)Nc1ncccc1F)C(=O)N1C[C@]2(C[C@H]1C#N)C(=O)Nc1ccccc12 [Example 121]	< 0.1
N#C[C@@H]1C[C@@]2(CN1C(=O)[C@H](CC1CC1)NC(=O)C(=O)Nc1cnccc1C(F)(F)F)C(=O)Nc1ccccc12 [Example 172]	< 0.1
CC(C)(C)C[C@H](NC(=O)C(=O)Nc1ccc(C(F)(F)F)nc1)C(=O)N1C[C@]2(C[C@H]1C#N)C(=O)Nc1ccccc12 [Example 158]	< 0.1
CC(C)(C)C[C@@H](C(=O)N1C[C@]2(C[C@H]1C#N)C(=O)Nc1ccccc12)N(CC(F)F)C(=O)C(=O)Nc1ccccn1 [Example 61]	> 1

SMILES	IC50 [µM]
CCCC[C@H](NC(=O)C(=O)Nc1c(C)cccc1C)C(=O)N1C[C@]2(C[C@H]1C#N)C(=O)Nc1ccccc12 [Example 202]	< 0.1
CC(C)(C)C[C@H](NC(=O)C(=O)N[C@]12C[C@](C(F)(F)F)(C1)C2)C(=O)N1C[C@]2(C[C@H]1C#N)C(=O)Nc1ccccc12 [Example 129]	< 0.1
CC(C)(C)C[C@H](NC(=O)C(=O)Nc1ccc2cc[nH]c2c1)C(=O)N1C[C@]2(C[C@H]1C#N)C(=O)Nc1ccccc12 [Example 124]	< 0.1
CC(C)(C)C[C@H](NC(=O)C(=O)Nc1c(C#N)cccc1C(F)(F)F)C(=O)N1C[C@]2(C[C@H]1C#N)C(=O)Nc1ccccc12 [Example 145]	0.1 to 1
CC(C)(C)C[C@H](NC(=O)C(=O)NC1(c2ccc(C(F)(F)F)cc2)CC1)C(=O)N1C[C@]2(C[C@H]1C#N)C(=O)Nc1ccccc12 [Example 108]	< 0.1
N#C[C@@H]1C[C@@]2(CN1C(=O)[C@H](CC1CC1)NC(=O)C(=O)Nc1cc(C(F)(F)F)ccn1)C(=O)Nc1ccccc12 [Example 168]	< 0.1
CC(C)(C)C[C@H](NC(=O)C(=O)Nc1c(F)cncc1F)C(=O)N1C[C@]2(C[C@H]1C#N)C(=O)Nc1ccccc12 [Example 122]	< 0.1
CC(C)(C)C[C@H](NC(=O)C(=O)Nc1cc(C(F)(F)F)ccn1)C(=O)N1C[C@]2(C[C@H]1C#N)C(=O)Nc1ccccc12 [Example 153]	< 0.1
CC(C)(C)C[C@@H](C(=O)N1C[C@]2(C[C@H]1C#N)C(=O)Nc1ccccc12)N(CC(F)(F)F)C(=O)C(=O)NC1CC1 [Example 67]	0.1 to 1
CC(C)(C)C[C@H](NC(=O)C(=O)NC1CCC(F)(F)CC1)C(=O)N1C[C@]2(C[C@H]1C#N)C(=O)Nc1ccccc12 [Example 131]	< 0.1
CC(C)(C)C[C@H](NC(=O)C(=O)Nc1c(F)cccc1Cl)C(=O)N1C[C@]2(C[C@H]1C#N)C(=O)Nc1ccccc12 [Example 146]	< 0.1
CC(C)(C)C[C@@H](C(=O)N1C[C@]2(C[C@H]1C#N)C(=O)Nc1ccccc12)N(CC(F)F)C(=O)C(=O)Nc1ccc(F)cc1 [Example 62]	0.1 to 1
CN(C(=O)C(=O)N[C@@H](CC(C)(C)C)C(=O)N1C[C@]2(C[C@H]1C#N)C(=O)Nc1ccccc12)C1CC1 [Example 109]	> 1
Cc1ccc(NC(=O)C(=O)N[C@@H](CC(C)(C)C)C(=O)N2C[C@]3(C[C@H]2C#N)C(=O)Nc2ccccc23)nc1 [Example 127]	< 0.1
CC(C)(C)C[C@H](NC(=O)C(=O)Nc1cnccc1C(F)(F)F)C(=O)N1C[C@]2(C[C@H]1C#N)C(=O)Nc1ccccc12 [Example 156]	< 0.1
CC(C)(C)C[C@H](NC(=O)C(=O)NC1(C)CCC1)C(=O)N1C[C@]2(C[C@H]1C#N)C(=O)Nc1ccccc12 [Example 164]	< 0.1
CC(C)(C)C[C@@H](C(=O)N1C[C@]2(C[C@H]1C#N)C(=O)Nc1ccccc12)N(CC(F)(F)F)C(=O)C(=O)Nc1ccccn1 [Example 66]	> 1
CC(C)(C)C[C@H](NC(=O)C(=O)Nc1cc(F)cc(F)c1)C(=O)N1C[C@]2(C[C@H]1C#N)C(=O)Nc1ccccc12 [Example 86]	< 0.1
